Experimental data taken from publication PMC11079024, “Identification of a family of species-selective complex I inhibitors as potential anthelmintics” (Nature Communications, 2024).
Several values for one entry are separate records, joined by “and”; a condition that tells them apart may be missing. Identical values can stand only once. Like-named read-outs stand apart in the source and are kept apart here.

Experiments:
[1] = target: C. elegans (N2) complex I (NADH:ubiquinone oxidoreductase) (Caenorhabditis elegans, UniProt P24887+Q93873+Q94360); test: biochemical; format: biochemical; settings: for % Activity Complex I: 100 µM compound, relative to solvent control, mean (SEM); for Percent in vitro activity, Complex I (single replicate Rep1-Rep4) / Percent in vitro activity, Complex I (Mean): 100 μM of NPD compound, C. elegans mitochondria; for Percent in vitro activity, Complex I (single replicate Rep1-Rep4): individual biological replicates; for Percent in vitro activity, Complex I (Mean): mean of four biological replicates
Outline: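 Compounds were tested against freeze-thawed isolated mitochondria (0.2 mg/mL protein). NADH:decylubiquinone activity was monitored via DCIP absorbance at 600 nm, and the initial linear slope was normalised to solvent controls.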

[2] = target: C. elegans complex II (succinate dehydrogenase) (Caenorhabditis elegans, UniProt O62215+P41956+Q09545); test: In vitro complex II activity assay, C. elegans mitochondria; format: biochemical; settings: for % Activity Complex II: 100 µM compound, relative to solvent control, mean (SEM); for Percent in vitro activity, Complex II (single replicate Rep1-Rep4) / Percent in vitro activity, Complex II (Mean): 100 μM of NPD compound, C. elegans mitochondria; for Percent in vitro activity, Complex II (single replicate Rep1-Rep4): individual biological replicates; for Percent in vitro activity, Complex II (Mean): mean of four biological replicates
Description: (§1) Mitochondria were isolated from the following free-living nematode strains: C. elegans—N2, CB3474, ECA882, ECA917, ECA1075, ECA1080; C. briggsae—AF16; P. pacificus—PS312; and P. hermaphrodita—B178. With the exception of the P. hermaphrodita strain B178, adult worms of each strain were grown in bulk through liquid culture to obtain mitochondria in sufficient quantities. Due to poor growth in liquid media, mixed stage populations of P. hermaphrodita were washed off and collected from NGM plates seeded with OP50. The isolation of mitochondria from all free-living nematode strains followed the protocol previously outlined in Burns et al.[24]. In brief, a 1 L saturated culture of E. coli HB101 was concentrated 20-fold in 50 mL complete S-medium. ~500,000 L1 worms synchronized from an embryo preparation performed the day prior were added to the S-media/HB101 suspension and grown to adulthood over the course of 3.5 days at 20 °C with shaking at 165 rpm. Following growth, worms were collected in 10 ×15 mL conical tubes and washed 7 times in M9 buffer. Worm suspensions were then combined into a single 15 mL conical tube and diluted to a final volume of 15 mL with M9 buffer. 1 mL aliquots of worm suspension were then distributed to 15 × 1.5 mL screw-cap microcentrifuge tubes and were pelleted at 500 g for 1 min. Excess M9 was aspirated without disturbing the worm pellet. 600 μL ice-cold isolate buffer A (250 mM sucrose, 10 mM Tris (pH 7.5), 1 mM EDTA, 1 mM PMSF (freshly prepared)) and 300 μL cold glass beads were then added to each tube. Tubes were incubated on ice for 10 min, and the worms were then lysed by bead beating (6 x 30 s, with 1 min cooling intervals). Tubes containing worm lysate were centrifuged at 1,000 g for 10 min at 4 °C and the supernatant was transferred to 15 new microcentrifuge tubes on ice. The tubes were centrifuged a second time at 1,000 g for 10 min at 4 °C and the supernatant was once again transferred to 15 new microcentrifuge tubes on ice. These tubes were then centrifuged at 16,000 g for 10 min at 4 °C. The resulting mitochondrial pellet was washed twice by re-suspension in 300 μL of ice-cold isolate buffer B (250 mM sucrose, 10 mM Tris (pH 7.5), 1 mM EDTA). Following the final wash, isolation buffer was aspirated from each tube and the pellets were flash-frozen in ethanol/dry ice and stored at −80 °C until needed.
(§2) The enzymatic activities of individual ETC complexes (I-IV) were assessed spectrophotometrically in isolated mitochondria using a Varioskan LUX Multimode plate reader (ThermoFisher Scientific). Mitochondrial pellets previously isolated were thawed on ice and resuspended in ice-cold isolation buffer (250 mM sucrose, 10 mM Tris (pH 7.5), 1 mM EDTA). The BCA assay (Walker, 1994) was used to quantify the protein concentration of mitochondria suspensions; solutions were diluted to a concentration of 0.2 mg/mL for use in all assays. For the complex I assay, mitochondria pellets were freeze-thawed on ice three times to increase enzyme accessibility. […] 20 μL mitochondria suspension was then added/mixed with a pipette to initiate the reaction. Immediately following the addition of mitochondria, absorbance was measured (complex I and II: 600 nm; complex III and IV: 550 nm) in 30 s intervals over 15 min. Enzymatic activity was determined in each reaction by plotting absorbance versus time and calculating the slope of the curve during the initial linear phase of the reaction. […] Percent activity of each complex was calculated by dividing the enzyme-specific activity of each well by the enzyme-specific activity of the corresponding solvent controls.
Complex II (succinate dehydrogenase) activity was assessed using the DCIP-coupled method previously described in Burns et al.[24].
For preliminary screens of hit compounds, compounds were screened at 100 μM; data are the average of at least three biological replicates. The complex I and II activity assays were used for additional dose-response experiments.

[3] = tested on: C. elegans complex III (decylubiquinol-cytochrome C reductase); test: In vitro complex III activity assay, C. elegans mitochondria; format: biochemical, Caenorhabditis elegans; settings: for % Activity Complex III: 100 µM compound, relative to solvent control, mean (SEM); for Percent in vitro activity, Complex III (single replicate Rep1-Rep4) / Percent in vitro activity, Complex III (Mean): 100 μM of NPD compound, C. elegans mitochondria; for Percent in vitro activity, Complex III (single replicate Rep1-Rep4): individual biological replicates; for Percent in vitro activity, Complex III (Mean): mean of four biological replicates
Description: as §1, §2
Antimycin A-sensitive complex III (decylubiquinol-cytochrome C […]) activity was determined by measuring the reduction of cytochrome C (CytC) as optimized in Luo et al.[59]. Decylubiquinol for complex III assays was prepared fresh as described in Janssen and Boyle, 2019[60].

[4] = tested on: C. elegans complex IV (cytochrome C oxidase); test: In vitro complex IV activity assay, C. elegans mitochondria; format: biochemical, Caenorhabditis elegans; settings: for % Activity Complex IV: 100 µM compound, relative to solvent control, mean (SEM); for Percent in vitro activity, Complex IV (single replicate Rep1-Rep4) / Percent in vitro activity, Complex IV (Mean): 100 μM of NPD compound, C. elegans mitochondria; for Percent in vitro activity, Complex IV (single replicate Rep1-Rep4): individual biological replicates; for Percent in vitro activity, Complex IV (Mean): mean of four biological replicates
Description: as §1, §2
Complex IV (cytochrome C oxidase) activity was determined by following the oxidation of CytC in the protocol outlined by Janssen and Boyle, 2019[60]. Reduced CytC was prepared fresh by adding 1 μL increments of 1 M dithiothreitol to a 1 mM solution of CytC and vortexing. A colour change from brown to orange/pink signals when CytC has been reduced.

C. elegans = C. elegans chemical screens of RIKEN NPD libraries at 50 μM (hit identification in KCN survival and development/viability assays); format: cell-based, Caenorhabditis elegans; settings: screened at 50 μM in triplicate; hit = modified z-score < −3; KCN = KCN survival assay, Dev. & Viability = development/viability assay
L1 wild-type C. elegans = settings: for LC50: caenorhabditis elegans; for C. elegans L1 relative motility, 3-hour post 200 µM KCN dilution: individual replicate (Rep)
HEK293 cells = settings: for HEK293 viability: individual replicate (Rep); for CC50: read-out: HEK293 Cell Viability Assay LC50, 2 days exposure

Sequence of C. elegans (N2) complex I (NADH:ubiquinone oxidoreductase) (Q94360 17-199): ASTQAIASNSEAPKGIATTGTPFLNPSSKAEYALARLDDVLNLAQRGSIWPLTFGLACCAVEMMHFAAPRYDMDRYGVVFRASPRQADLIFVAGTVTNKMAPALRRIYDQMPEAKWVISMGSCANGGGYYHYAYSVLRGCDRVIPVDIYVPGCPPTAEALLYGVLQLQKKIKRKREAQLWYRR
Sequence of C. elegans (N2) complex I (NADH:ubiquinone oxidoreductase) (P24887 whole entry): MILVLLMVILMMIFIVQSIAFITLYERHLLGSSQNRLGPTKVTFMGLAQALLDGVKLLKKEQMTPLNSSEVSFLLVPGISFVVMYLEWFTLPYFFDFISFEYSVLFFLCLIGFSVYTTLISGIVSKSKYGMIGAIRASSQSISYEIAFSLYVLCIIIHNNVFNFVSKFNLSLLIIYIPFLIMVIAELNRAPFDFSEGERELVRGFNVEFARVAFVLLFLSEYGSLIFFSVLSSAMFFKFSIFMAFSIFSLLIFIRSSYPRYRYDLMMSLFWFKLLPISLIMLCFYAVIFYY
Sequence of C. elegans (N2) complex I (NADH:ubiquinone oxidoreductase) (Q93873 31-482): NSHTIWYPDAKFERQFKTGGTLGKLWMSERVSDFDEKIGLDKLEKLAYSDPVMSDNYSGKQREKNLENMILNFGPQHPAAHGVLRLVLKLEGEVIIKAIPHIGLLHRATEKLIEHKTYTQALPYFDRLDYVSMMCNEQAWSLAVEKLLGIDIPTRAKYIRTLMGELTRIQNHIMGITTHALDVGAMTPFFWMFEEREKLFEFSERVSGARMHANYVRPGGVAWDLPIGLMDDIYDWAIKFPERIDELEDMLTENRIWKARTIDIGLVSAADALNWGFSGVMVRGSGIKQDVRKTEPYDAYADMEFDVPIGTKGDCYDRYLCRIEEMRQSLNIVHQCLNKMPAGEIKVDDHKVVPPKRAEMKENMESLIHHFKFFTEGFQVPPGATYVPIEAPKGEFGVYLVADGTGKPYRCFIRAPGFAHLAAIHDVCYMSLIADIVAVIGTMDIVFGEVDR
Sequence of C. elegans complex II (succinate dehydrogenase) (P41956 30-182): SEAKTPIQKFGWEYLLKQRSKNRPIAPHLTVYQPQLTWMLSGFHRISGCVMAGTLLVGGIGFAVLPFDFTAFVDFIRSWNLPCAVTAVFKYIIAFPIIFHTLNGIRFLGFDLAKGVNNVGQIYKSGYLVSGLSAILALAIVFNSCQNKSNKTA
Sequence of C. elegans complex II (succinate dehydrogenase) (Q09545 22-298): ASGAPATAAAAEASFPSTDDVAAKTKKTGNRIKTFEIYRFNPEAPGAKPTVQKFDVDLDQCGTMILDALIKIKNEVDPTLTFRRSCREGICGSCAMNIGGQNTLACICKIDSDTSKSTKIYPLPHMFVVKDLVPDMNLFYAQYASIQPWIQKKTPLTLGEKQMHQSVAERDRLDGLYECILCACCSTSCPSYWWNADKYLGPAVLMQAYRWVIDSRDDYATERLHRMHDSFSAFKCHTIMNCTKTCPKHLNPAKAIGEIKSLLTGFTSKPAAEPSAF
Sequence of C. elegans complex II (succinate dehydrogenase) (Q09508 32-646, further chain): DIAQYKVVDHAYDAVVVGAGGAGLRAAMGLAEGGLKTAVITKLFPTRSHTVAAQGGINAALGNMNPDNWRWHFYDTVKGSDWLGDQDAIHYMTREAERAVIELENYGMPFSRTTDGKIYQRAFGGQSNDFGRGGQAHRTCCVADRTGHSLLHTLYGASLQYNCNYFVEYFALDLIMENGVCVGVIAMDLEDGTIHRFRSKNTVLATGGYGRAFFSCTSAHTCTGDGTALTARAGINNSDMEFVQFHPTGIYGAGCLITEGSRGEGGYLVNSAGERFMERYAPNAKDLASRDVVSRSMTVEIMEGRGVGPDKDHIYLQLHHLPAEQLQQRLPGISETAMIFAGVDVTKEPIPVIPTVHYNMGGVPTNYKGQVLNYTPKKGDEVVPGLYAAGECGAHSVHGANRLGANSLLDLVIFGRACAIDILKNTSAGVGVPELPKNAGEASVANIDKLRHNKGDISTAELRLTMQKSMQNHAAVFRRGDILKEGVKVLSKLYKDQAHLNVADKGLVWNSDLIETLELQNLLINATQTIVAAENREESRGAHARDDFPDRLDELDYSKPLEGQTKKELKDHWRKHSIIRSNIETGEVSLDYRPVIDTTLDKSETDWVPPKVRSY
Sequence of C. elegans complex II (succinate dehydrogenase) (O62215 31-145): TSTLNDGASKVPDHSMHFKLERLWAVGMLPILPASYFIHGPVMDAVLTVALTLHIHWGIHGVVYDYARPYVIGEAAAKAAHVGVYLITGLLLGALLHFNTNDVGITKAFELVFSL

| Structure (SMILES) | % Activity Complex I [1] | Percent in vitro activity, Complex I (single replicate Rep1-Rep4) [1] | Percent in vitro activity, Complex I (Mean) [1] | % Activity Complex II [2] | Percent in vitro activity, Complex II (single replicate Rep1-Rep4) [2] | Percent in vitro activity, Complex II (Mean) [2] | % Activity Complex III [3] | Percent in vitro activity, Complex III (single replicate Rep1-Rep4) [3] | Percent in vitro activity, Complex III (Mean) [3] | % Activity Complex IV [4] | Percent in vitro activity, Complex IV (single replicate Rep1-Rep4) [4] | Percent in vitro activity, Complex IV (Mean) [4] | Hit Type (C. elegans) | LC50 (L1 wild-type C. elegans) | CC50 (HEK293 cells) | also measured |
| --- | --- | --- | --- | --- | --- | --- | --- | --- | --- | --- | --- | --- | --- | --- | --- | --- |
| COc1ccc(-c2cc(=Nc3ccccc3N)c3ccccc3o2)cc1 [NPD6380] | 86.43 (2.27) % | 77.779% and 82.402% and 98.876% and 86.642% | 86.425% | 102.27 (2.46) % | 113.834% and 92.410% and 96.068% and 106.772% | 102.271% | 107.06 (1.36) % | 109.305% and 109.700% and 110.292% and 98.948% | 107.062% | 115.38 (4.42) % | 108.559% and 111.425% and 100.551% and 140.996% | 115.383% | KCN | 14.3 µM | 29.2 µM | C. elegans L1 relative motility, 3-hour post 200 µM KCN dilution (L1 wild-type C. elegans; dose 0.4 µM): 1.243 and 1.189; C. elegans L1 relative motility, 3-hour post 200 µM KCN dilution (L1 wild-type C. elegans; dose 0.8 µM): 1.074 and 1.086; C. elegans L1 relative motility, 3-hour post 200 µM KCN dilution (L1 wild-type C. elegans; dose 3.1 µM): 1.020 and 1.053; C. elegans L1 relative motility, 3-hour post 200 µM KCN dilution (L1 wild-type C. elegans; dose 6.3 µM): 1.040 and 1.101; C. elegans L1 relative motility, 3-hour post 200 µM KCN dilution (L1 wild-type C. elegans; dose 12.5 µM): 0.696 and 0.688; C. elegans L1 relative motility, 3-hour post 200 µM KCN dilution (L1 wild-type C. elegans; dose 25 µM): 0.136 and 0.141; C. elegans L1 relative motility, 3-hour post 200 µM KCN dilution (L1 wild-type C. elegans; dose 50 µM): 0.030 and 0.035; HEK293 viability (HEK293 cells; dose 0.8 µM): 0.998; HEK293 viability (HEK293 cells; dose 3.1 µM): 0.945 and 0.951; HEK293 viability (HEK293 cells; dose 6.3 µM): 0.687 and 0.797; HEK293 viability (HEK293 cells; dose 12.5 µM): 0.542 and 0.584; HEK293 viability (HEK293 cells; dose 25 µM): 0.441 and 0.466; HEK293 viability (HEK293 cells; dose 50 µM): 0.431 and 0.445 |
| COc1ccc(N=c2cc(-c3ccc(OC)cc3)oc3ccc(O)cc23)cc1 [NPD8034] | 99.30 (2.57) % | 99.316% and 113.812% and 92.579% and 91.475% | 99.295% | 89.02 (4.77) % | 117.368% and 83.101% and 77.239% and 78.358% | 89.016% | 95.08 (1.51) % | 95.115% and 96.990% and 101.326% and 86.891% | 95.080% | 96.04 (2.78) % | 88.996% and 91.859% and 90.669% and 112.640% | 96.041% | KCN | 12 µM | 11.2 µM | – |
| Cc1cc(O)c(C(=O)/C=C/c2ccccc2)c(=O)o1 [NPD8366] | 102.66 (1.57) % | 109.574% and 101.002% and 105.233% and 94.820% | 102.657% | 86.41 (3.37) % | 86.839% and 91.030% and 67.920% and 99.847% | 86.409% | 76.74 (1.10) % | 80.994% and 79.847% and 74.350% and 71.759% | 76.737% | 97.72 (2.77) % | 88.563% and 105.997% and 87.809% and 108.514% | 97.721% | KCN | 11.6 µM | 19.7 µM | – |
